Source: patent US20250270202A1, “SUBSTITUTED 4-AMINOISOINDOLINE COMPOUND, PREPARATION METHOD THEREFOR, PHARMACEUTICAL COMPOSITION THEREOF, AND USE THEREOF” (SHANGHAI INSTITUTE OF MATERIA MEDICA, CHINESE ACADEMY OF …, priority 2022, published 2025)
Where two headings read alike, the source gives them in different places.

Legend:
Mino cells = test: Inhibition of cell proliferation of Mino cells (MTS, 3 days); assay type: cell-based; settings: Homo sapiens, MINO
How it was run: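 Mino cells in RPMI-1640 with 15% FBS were seeded at 8000 cells/well and treated with 5-fold compound dilutions (final DMSO 0.2%) for 3 days at 37° C. Viability was measured by MTS as OD490−OD690 after 3-4 h. IC50 was fitted from inhibition relative to DMSO and blank, in three repeat experiments.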

MV-4-11 cells = test: Inhibition of MV-4-11 cell proliferation (MTS, 7 days); assay type: cell-based; settings: Homo sapiens
How it was run: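 Measured at 2,000 cells per well in IMDM with 10% FBS, five-fold compound dilutions, 0.2% DMSO final, 7 days at 37° C, 5% CO2. MTS added for 3-4 hours; signal as OD490-OD690. IC50 from three repeated experiments, each in triplicate.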

[1] = Mouse pharmacokinetic experiment, oral gavage; assay type: in vivo; settings: ICR mice, female, oral gavage 20 mg/kg, plasma
Protocol: Mouse Pharmacokinetic Experimental Scheme ICR mice, female, 18-22 g, randomly divided into groups with 4 mice per group. The test compounds were administered by oral gavage at a dose volume of 10 mL/kg. The oral solution was prepared using DMSO/PEG-400/water (5:30:65, v/v/v). Mice were fasted for 12 hours prior to the experiment with free access to water. After drug administration, they were allowed to eat uniformly at 2 hours post-dose. The test compounds (20 mg/kg) were orally administered to 4 mice. Blood samples (50 μL) were collected from the orbital vein at the following time points: 5 min, 15 min, 30 min, 1 h, 2 h, 4 h, 6 h, and 24 h. The blood was centrifuged at 12,000 rpm for 2 minutes to separate plasma, which was then stored at −20° C. for blood concentration measurement.

MM.1S cells = test: Effect of the compound on MM.1S cell proliferation (MTS, 7 days); assay type: cell-based; settings: Homo sapiens, MM1.S
How it was run: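 MM.1S cells (20,000/well in RPMI 1640 with 10% FBS) were exposed to a 5-step compound dilution series (0.2% DMSO final) for 7 days at 37 °C, 5% CO2. MTS readout used OD490 minus OD690 after 3–4 h, and IC50 was fitted from three independent repeats.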

[2] = 72 h, 3 days, MTS, Table 2, read-out: Mino Cells Inhibition Activity IC50
[3] = MV4-11, 168 h, 7 days, MTS, Table 3, read-out: MV-4-11 Cells Inhibition Activity IC50
[4] = 168 h, 7 days, MTS, Table 1, read-out: MM.1S Cells Inhibition Activity IC50
[5] = Table 4, read-out: Inhibitory Activity of Compounds on Cell Proliferation Mino IC50
[6] = MV4-11, Table 4, values in nM, read-out: Inhibitory Activity of Compounds on Cell Proliferation MV-4-11 IC50
[7] = Table 4, read-out: Inhibitory Activity of Compounds on Cell Proliferation MM.1S IC50
[8] = MV4-11, Table 4, values in μM, read-out: Inhibitory Activity of Compounds on Cell Proliferation MV-4-11 IC50
[9] = MV4-11, positive compounds, read-out: IC50 in MV-4-11 acute leukemia cells

| IC50 (MV-4-11 cells; [3]) [nM] | AUC(0-t) [1] [ng·h/mL] | Cmax [1] [ng/mL] | IC50 (MM.1S cells; [4]) [nM] | IC50 (MV-4-11 cells; [6]) [nM] | IC50 (MM.1S cells; [7]) [nM] | IC50 (MV-4-11 cells; [8]) [nM] | IC50 (MV-4-11 cells; [9]) [nM] | Compound | IC50 (Mino cells; [2]) [nM] | IC50 (Mino cells; [5]) [nM] |
| --- | --- | --- | --- | --- | --- | --- | --- | --- | --- | --- |
| < 1000 | > 10000 | > 2000 | < 15 |  |  |  |  | O=C1CCC(N2C(=O)c3cccc(NCc4cnc(-c5ccccc5)o4)c3C2=O)C(=O)N1 (stereo not shown) [Example 22] | < 60 |  |
| < 1000 | > 10000 | > 2000 | < 15 |  |  |  |  | O=C1CCC(N2C(=O)c3cccc(NCc4cnc(-c5ccc(C(F)(F)F)cc5)s4)c3C2=O)C(=O)N1 (stereo not shown) [Example 37] | < 60 |  |
| < 1000 | > 10000 | > 2000 | 15 to 30 |  |  |  |  | [2H]c1c([2H])c([2H])c(-c2ncc(CNc3cccc4c3C(=O)N(C3CCC(=O)NC3=O)C4=O)o2)c([2H])c1[2H] (stereo not shown) [Example 45] | < 60 |  |
| < 1000 | > 10000 | > 2000 | < 15 |  |  |  |  | O=C1CCC(N2C(=O)c3cccc(NCc4cnc(-c5ccc(OC6CC6)cc5)o4)c3C2=O)C(=O)N1 (stereo not shown) [Example 51, 4-(((2-(4-Cyclopropoxyphenyl)oxazol-5-yl)methyl)amino)-2-(2,6-Dioxopiperidin-3-yl)isoindolin-1,3-dione] | < 60 |  |
| < 1000 |  |  | 15 to 30 |  |  |  |  | COCCOc1ccc(-c2ncc(CNc3cccc4c3C(=O)N(C3CCC(=O)NC3=O)C4=O)s2)cc1 (stereo not shown) [Example 104] | > 120 |  |
| 1000 to 20000 |  |  | > 150 |  |  |  |  | O=C1CCC(N2C(=O)c3cccc(NCc4cnc([C@H]5CC[C@@H](Cc6ccc(F)cc6)CC5)o4)c3C2=O)C(=O)N1 (stereo partly drawn) [Example 105, 2-(2,6-Dioxopiperidine-3-yl)-4-(((2-((1S,4S)-4-(4-Fluorobenzyl)cyclohexyl)oxazol-5-yl)methyl)amino)isoindoline-1,3-dione] | > 120 |  |
| < 1000 |  |  | 30 to 150 |  |  |  |  | O=C1CCC(N2C(=O)c3cccc(NCc4cnc([C@H]5CC[C@H](Cc6ccc(F)cc6)CC5)o4)c3C2=O)C(=O)N1 (stereo partly drawn) [Example 106, 2-(2,6-Dioxopiperidine-3-yl)-4-(((2-((1R,4R)-4-(4-Fluorobenzyl)cyclohexyl)oxazol-5-yl)methyl)amino)isoindoline-1,3-dione] | > 120 |  |
|  |  |  |  | 14400 | 420 |  |  | CC(C)(C)C(=O)N1CCC(c2ncc(CNc3cccc4c3CN(C3CCC(=O)NC3=O)C4=O)o2)CC1 (stereo not shown) [Example Ctrl-1, 3-(1-oxo-4-(((2-(1-pivaloylpiperidin-4-yl)oxazol-5-yl)methyl)amino)isoindolin-2-yl)piperidine-2,6-dione, reference compound] |  | > 20000 |
|  |  |  |  |  | > 30 | 1000 to 20000 |  | O=CN(Cc1cnc(-c2ccc(Cl)cc2)o1)c1cccc2c1C(=O)N(C1CCC(=O)NC1=O)C2=O (stereo not shown) [Example Ctrl-2, N-((2-(4-chlorophenyl)oxazol-5-yl)methyl)-N-(2-(2,6-dioxopiperidin-3-yl)-1,3-dioxoisoindolin-4-yl) formamide, reference compound] |  | > 120 |
|  |  |  |  |  | > 30 | 1000 to 20000 |  | CN(Cc1cnc(-c2ccc(Cl)cc2)o1)c1cccc2c1C(=O)N(C1CCC(=O)NC1=O)C2=O (stereo not shown) [Example Ctrl-3, 4-(((2-(4-chlorophenyl)oxazol-5-yl)methyl)(methyl)amino)-2-(2,6-dioxopiperidin-3-yl)isoindoline-1,3-dione, reference compound] |  | > 120 |
|  |  |  |  | > 20000 | > 15 |  |  | O=C1CCC(N2Cc3c(NCc4cn(-c5ccc(Cl)cc5)nn4)cccc3C2=O)C(=O)N1 (stereo not shown) [Example Ctrl-4, reference compound] |  | > 5000 |
| > 20000 |  |  | 30 to 150 |  |  |  | > 20000 | Nc1cccc2c1CN(C1CCC(=O)NC1=O)C2=O (stereo not shown) [Lenalidomide, reference compound] | > 120 |  |
| > 20000 |  |  | 30 to 150 |  |  |  | > 20000 | Nc1cccc2c1C(=O)N(C1CCC(=O)NC1=O)C2=O (stereo not shown) [Pomalidomide, reference compound] | > 120 |  |
|  |  |  |  | > 20000 | > 20 |  |  | O=C1CCC(N2Cc3c(NCc4cnc(-c5ccc(OC(F)(F)F)cc5)o4)cccc3C2=O)C(=O)N1 (stereo not shown) [Prior Art Disclosed Compound-1, reference compound] |  | > 4800 |
|  |  |  |  | > 20000 | 73 |  |  | O=C1CCC(N2Cc3c(CCc4cnc(-c5ccc(OC(F)(F)F)cc5)o4)cccc3C2=O)C(=O)N1 (stereo not shown) [Prior Art Disclosed Compound-2, reference compound] |  | 800 |
|  |  |  |  | > 20000 | > 20000 |  |  | O=C1CCC(N2C(=O)c3cccc(OCc4cn(-c5ccc(OC(F)(F)F)cc5)nn4)c3C2=O)C(=O)N1 (stereo not shown) [Prior Art Disclosed Compound-3, reference compound] |  | 680 |
|  |  |  |  | > 10000 | > 41 |  |  | O=C1CCC(N2Cc3c(OCC4CCN(c5ccc(OC(F)(F)F)cc5)CC4)cccc3C2=O)C(=O)N1 (stereo not shown) [Prior Art Disclosed Compound-4, reference compound] |  | 7500 |
